According to the kinase profiling compilation of Christmann-Franck et al. (2016):

Key:
AXL (human) = AXL (human) (UniProt P30530); assay: radiometric filter-binding kinase assay
CSF1R (human) = CSF1R (human) (UniProt P07333); assay: radiometric filter-binding kinase assay
KDR (human) [1] = molecular target: KDR (human) (UniProt P35968); assay: radiometric filter-binding kinase assay
MET (human) = MET (human) (UniProt P08581); assay: radiometric filter-binding kinase assay
PDPK1 (human) = PDPK1 (human) (UniProt O15530); assay: radiometric filter-binding kinase assay
PRKDC (human) = PRKDC (human) (UniProt P78527); assay: radiometric filter-binding kinase assay
TEK (human) = TEK (human) (UniProt Q02763); assay: radiometric filter-binding kinase assay
Chain of TEK (human) (Q02763 whole entry, looked up): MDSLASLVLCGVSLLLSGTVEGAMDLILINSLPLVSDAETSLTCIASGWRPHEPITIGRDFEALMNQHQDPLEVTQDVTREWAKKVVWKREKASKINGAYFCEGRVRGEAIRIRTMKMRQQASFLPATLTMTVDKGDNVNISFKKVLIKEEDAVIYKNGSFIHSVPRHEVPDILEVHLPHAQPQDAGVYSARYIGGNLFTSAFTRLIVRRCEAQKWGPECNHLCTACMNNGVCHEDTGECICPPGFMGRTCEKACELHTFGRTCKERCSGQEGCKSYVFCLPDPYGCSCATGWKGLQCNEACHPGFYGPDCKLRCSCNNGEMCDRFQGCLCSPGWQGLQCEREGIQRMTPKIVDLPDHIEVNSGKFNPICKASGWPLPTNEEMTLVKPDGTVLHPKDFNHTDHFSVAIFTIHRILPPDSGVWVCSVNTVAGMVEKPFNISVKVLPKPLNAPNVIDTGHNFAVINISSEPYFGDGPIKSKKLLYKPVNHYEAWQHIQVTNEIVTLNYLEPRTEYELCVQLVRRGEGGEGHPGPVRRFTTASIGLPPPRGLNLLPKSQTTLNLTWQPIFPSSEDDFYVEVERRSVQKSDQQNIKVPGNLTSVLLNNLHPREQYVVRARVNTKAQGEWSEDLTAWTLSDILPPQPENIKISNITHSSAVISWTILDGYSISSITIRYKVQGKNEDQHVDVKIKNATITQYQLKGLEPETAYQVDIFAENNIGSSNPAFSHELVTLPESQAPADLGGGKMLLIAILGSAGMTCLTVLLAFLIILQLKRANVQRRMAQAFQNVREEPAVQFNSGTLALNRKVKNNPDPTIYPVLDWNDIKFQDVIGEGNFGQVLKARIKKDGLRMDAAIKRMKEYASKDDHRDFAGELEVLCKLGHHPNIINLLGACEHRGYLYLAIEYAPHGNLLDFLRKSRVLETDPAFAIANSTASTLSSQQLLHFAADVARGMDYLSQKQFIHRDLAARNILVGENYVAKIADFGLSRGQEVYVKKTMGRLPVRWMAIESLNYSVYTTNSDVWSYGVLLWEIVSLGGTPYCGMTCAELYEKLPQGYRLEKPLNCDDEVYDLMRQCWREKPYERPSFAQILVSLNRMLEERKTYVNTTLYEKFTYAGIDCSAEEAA

ATR (human) = ATR (human) (UniProt Q13535); assay: Alphascreen
[2] = test system: ABL1 (human), P00519 [Y253F]; assay: KINOMEscan competition binding; conditions: compound 1.0 µM
AKT3 (human) = AKT3 (human) (UniProt Q9Y243); assay: KINOMEscan competition binding; conditions: compound 1.0 µM
CDK7 (human) = CDK7 (human) (UniProt P50613); assay: KINOMEscan competition binding; conditions: compound 1.0 µM
CHEK2 (human) = CHEK2 (human) (UniProt O96017); assay: KINOMEscan competition binding; conditions: compound 1.0 µM
Chain of CHEK2 (human) (O96017 whole entry, looked up): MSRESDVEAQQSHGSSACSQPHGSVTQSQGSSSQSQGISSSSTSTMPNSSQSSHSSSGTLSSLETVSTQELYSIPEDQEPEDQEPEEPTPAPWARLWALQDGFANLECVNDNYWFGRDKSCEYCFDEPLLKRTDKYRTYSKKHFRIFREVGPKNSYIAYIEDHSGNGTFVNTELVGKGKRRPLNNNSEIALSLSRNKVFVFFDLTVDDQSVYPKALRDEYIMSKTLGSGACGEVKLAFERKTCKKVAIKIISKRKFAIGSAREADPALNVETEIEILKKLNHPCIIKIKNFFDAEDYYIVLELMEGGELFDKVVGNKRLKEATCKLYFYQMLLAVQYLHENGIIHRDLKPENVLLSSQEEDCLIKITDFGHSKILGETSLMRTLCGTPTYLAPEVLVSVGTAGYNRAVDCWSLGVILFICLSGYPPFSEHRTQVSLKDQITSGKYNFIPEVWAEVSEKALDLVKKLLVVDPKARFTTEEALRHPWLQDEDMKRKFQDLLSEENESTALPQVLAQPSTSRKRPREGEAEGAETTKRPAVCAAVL

DCLK3 (human) = DCLK3 (human) (UniProt Q9C098); assay: KINOMEscan competition binding; conditions: compound 1.0 µM
Chain of DCLK3 (human) (Q9C098 whole entry, looked up): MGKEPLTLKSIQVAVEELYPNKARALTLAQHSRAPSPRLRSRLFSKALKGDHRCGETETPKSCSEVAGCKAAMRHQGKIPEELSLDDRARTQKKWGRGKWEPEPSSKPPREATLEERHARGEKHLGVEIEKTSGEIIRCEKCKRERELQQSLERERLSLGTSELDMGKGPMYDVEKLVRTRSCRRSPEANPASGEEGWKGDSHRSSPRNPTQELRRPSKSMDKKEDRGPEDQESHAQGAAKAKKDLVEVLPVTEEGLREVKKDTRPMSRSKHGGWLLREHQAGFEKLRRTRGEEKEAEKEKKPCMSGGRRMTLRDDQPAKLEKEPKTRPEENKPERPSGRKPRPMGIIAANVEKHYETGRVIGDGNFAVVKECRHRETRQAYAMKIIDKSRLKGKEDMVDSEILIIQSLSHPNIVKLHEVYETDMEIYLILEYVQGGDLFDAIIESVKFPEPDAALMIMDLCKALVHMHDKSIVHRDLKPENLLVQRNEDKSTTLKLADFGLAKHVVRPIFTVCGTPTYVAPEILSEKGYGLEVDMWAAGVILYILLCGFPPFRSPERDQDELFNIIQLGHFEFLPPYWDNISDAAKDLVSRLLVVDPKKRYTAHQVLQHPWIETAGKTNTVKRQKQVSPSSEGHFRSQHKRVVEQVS

[3] = test system: EGFR (human), P00533 [L861Q]; assay: KINOMEscan competition binding; conditions: compound 1.0 µM
FER (human) = FER (human) (UniProt P16591); assay: KINOMEscan competition binding; conditions: compound 1.0 µM
FGFR3 (human) = FGFR3 (human) (UniProt P22607); assay: KINOMEscan competition binding; conditions: compound 1.0 µM
FYN (human) = FYN (human) (UniProt P06241); assay: KINOMEscan competition binding; conditions: compound 1.0 µM
GSK3A (human) = GSK3A (human) (UniProt P49840); assay: KINOMEscan competition binding; conditions: compound 1.0 µM
HUNK (human) = HUNK (human) (UniProt P57058); assay: KINOMEscan competition binding; conditions: compound 1.0 µM
KDR (human) [4] = molecular target: KDR (human) (UniProt P35968); assay: KINOMEscan competition binding; conditions: compound 1.0 µM
LCK (human) = LCK (human) (UniProt P06239); assay: KINOMEscan competition binding; conditions: compound 1.0 µM
MAP3K10 (human) = MAP3K10 (human) (UniProt Q02779); assay: KINOMEscan competition binding; conditions: compound 1.0 µM
MAP3K12 (human) = MAP3K12 (human) (UniProt Q12852); assay: KINOMEscan competition binding; conditions: compound 1.0 µM
MAP3K6 (human) = MAP3K6 (human) (UniProt O95382); assay: KINOMEscan competition binding; conditions: compound 1.0 µM
MAPK12 (human) = MAPK12 (human) (UniProt P53778); assay: KINOMEscan competition binding; conditions: compound 1.0 µM
MAPK13 (human) = MAPK13 (human) (UniProt O15264); assay: KINOMEscan competition binding; conditions: compound 1.0 µM
Chain of MAPK13 (human) (O15264 whole entry, looked up): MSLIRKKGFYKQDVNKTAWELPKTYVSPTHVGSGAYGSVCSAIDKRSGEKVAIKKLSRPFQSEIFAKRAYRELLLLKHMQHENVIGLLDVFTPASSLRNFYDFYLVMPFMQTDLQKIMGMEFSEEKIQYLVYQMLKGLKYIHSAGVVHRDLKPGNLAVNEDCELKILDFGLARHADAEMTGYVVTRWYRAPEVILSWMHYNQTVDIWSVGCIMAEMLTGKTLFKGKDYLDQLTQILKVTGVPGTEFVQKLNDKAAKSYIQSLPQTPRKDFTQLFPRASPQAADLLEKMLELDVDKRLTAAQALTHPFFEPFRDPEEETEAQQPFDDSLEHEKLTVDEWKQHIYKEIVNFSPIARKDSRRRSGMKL

MYLK4 (human) = MYLK4 (human) (UniProt Q86YV6); assay: KINOMEscan competition binding; conditions: compound 1.0 µM
NEK6 (human) = NEK6 (human) (UniProt Q9HC98); assay: KINOMEscan competition binding; conditions: compound 1.0 µM
NTRK3 (human) = NTRK3 (human) (UniProt Q16288); assay: KINOMEscan competition binding; conditions: compound 1.0 µM
OXSR1 (human) = OXSR1 (human) (UniProt O95747); assay: KINOMEscan competition binding; conditions: compound 1.0 µM
PAK2 (human) = PAK2 (human) (UniProt Q13177); assay: KINOMEscan competition binding; conditions: compound 1.0 µM
PTK2 (human) = PTK2 (human) (UniProt Q05397); assay: KINOMEscan competition binding; conditions: compound 1.0 µM
RIOK1 (human) = RIOK1 (human) (UniProt Q9BRS2); assay: KINOMEscan competition binding; conditions: compound 1.0 µM
ROCK1 (human) = ROCK1 (human) (UniProt Q13464); assay: KINOMEscan competition binding; conditions: compound 1.0 µM
RPS6KA1 KD1 (human) = RPS6KA1 KD1 (human) (UniProt Q15418); assay: KINOMEscan competition binding; conditions: compound 1.0 µM
RPS6KA4 KD1 (human) = RPS6KA4 KD1 (human) (UniProt O75676); assay: KINOMEscan competition binding; conditions: compound 1.0 µM
RPS6KA5 KD2 (human) = RPS6KA5 KD2 (human) (UniProt O75582); assay: KINOMEscan competition binding; conditions: compound 1.0 µM
SIK2 (human) = SIK2 (human) (UniProt Q9H0K1); assay: KINOMEscan competition binding; conditions: compound 1.0 µM
STK3 (human) = STK3 (human) (UniProt Q13188); assay: KINOMEscan competition binding; conditions: compound 1.0 µM
TEC (human) = TEC (human) (UniProt P42680); assay: KINOMEscan competition binding; conditions: compound 1.0 µM
ULK1 (human) = ULK1 (human) (UniProt O75385); assay: KINOMEscan competition binding; conditions: compound 1.0 µM

Chain of KDR (human) (P35968 whole entry, looked up): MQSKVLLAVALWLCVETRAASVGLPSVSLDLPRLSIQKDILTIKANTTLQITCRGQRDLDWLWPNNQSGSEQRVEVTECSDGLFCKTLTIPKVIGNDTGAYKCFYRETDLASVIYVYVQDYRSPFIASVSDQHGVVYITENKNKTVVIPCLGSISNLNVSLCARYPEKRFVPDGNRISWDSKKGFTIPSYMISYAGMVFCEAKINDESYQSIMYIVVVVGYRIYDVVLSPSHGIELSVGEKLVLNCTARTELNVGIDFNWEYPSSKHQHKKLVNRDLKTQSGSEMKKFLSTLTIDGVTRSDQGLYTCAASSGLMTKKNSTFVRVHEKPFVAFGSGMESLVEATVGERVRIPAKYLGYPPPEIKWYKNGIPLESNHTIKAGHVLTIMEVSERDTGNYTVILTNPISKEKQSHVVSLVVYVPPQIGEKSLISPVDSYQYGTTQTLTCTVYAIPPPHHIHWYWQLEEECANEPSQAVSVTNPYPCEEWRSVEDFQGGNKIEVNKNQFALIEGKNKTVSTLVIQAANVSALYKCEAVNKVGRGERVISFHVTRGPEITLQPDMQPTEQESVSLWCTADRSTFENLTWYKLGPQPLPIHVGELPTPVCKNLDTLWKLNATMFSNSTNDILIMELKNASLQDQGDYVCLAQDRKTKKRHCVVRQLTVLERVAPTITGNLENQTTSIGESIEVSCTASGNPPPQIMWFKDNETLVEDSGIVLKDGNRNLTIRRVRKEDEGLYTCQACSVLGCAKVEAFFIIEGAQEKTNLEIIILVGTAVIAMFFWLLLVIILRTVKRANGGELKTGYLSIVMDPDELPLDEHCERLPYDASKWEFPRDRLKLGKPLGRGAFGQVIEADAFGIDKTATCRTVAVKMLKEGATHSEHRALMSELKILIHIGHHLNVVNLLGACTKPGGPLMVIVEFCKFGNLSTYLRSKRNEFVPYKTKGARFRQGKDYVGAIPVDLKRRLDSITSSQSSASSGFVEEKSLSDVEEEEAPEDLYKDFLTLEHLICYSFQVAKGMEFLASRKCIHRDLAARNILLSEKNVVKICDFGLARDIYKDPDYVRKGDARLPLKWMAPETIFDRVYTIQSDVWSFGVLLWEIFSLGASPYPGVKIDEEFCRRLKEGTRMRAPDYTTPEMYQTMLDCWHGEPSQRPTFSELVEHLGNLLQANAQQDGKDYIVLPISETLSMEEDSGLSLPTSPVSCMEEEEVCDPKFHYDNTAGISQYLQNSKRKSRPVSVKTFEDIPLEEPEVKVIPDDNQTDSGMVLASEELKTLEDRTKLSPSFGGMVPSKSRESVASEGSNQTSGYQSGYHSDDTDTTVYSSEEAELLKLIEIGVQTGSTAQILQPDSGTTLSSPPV
Chain of CSF1R (human) (P07333 whole entry, looked up): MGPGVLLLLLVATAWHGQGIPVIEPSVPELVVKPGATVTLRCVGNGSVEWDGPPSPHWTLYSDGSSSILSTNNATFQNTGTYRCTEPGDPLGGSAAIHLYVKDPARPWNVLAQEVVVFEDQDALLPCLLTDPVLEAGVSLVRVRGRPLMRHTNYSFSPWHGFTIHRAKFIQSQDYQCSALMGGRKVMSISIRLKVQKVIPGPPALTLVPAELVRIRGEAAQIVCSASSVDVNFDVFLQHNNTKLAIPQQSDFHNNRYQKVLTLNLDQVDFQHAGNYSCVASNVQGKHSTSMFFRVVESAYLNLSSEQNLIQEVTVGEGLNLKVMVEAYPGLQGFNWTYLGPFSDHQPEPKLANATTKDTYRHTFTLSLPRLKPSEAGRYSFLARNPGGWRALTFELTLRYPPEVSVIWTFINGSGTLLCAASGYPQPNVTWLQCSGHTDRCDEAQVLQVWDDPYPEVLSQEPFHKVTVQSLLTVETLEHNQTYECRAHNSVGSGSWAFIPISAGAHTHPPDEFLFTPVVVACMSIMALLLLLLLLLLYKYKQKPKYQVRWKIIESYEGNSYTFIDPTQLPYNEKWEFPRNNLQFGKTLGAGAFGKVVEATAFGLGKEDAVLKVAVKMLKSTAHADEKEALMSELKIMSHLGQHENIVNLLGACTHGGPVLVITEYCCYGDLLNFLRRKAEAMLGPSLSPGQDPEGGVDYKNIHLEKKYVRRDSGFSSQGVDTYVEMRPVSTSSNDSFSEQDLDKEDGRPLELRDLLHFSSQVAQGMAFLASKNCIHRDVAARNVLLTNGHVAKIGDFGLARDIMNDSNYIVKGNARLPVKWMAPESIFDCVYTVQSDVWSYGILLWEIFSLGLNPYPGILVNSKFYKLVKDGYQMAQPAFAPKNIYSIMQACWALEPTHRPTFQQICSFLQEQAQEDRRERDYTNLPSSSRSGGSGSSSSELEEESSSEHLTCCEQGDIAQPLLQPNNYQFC

IC50 (AXL (human)): > 10 µM
IC50 (CSF1R (human)): 0.582 µM
IC50 (KDR (human) [1]): > 10 µM
IC50 (MET (human)): > 10 µM
IC50 (PDPK1 (human)): > 10 µM
IC50 (PRKDC (human)): > 10 µM
IC50 (TEK (human)): > 10 µM
IC50 (ATR (human)): 8.09 µM
inhibition of binding [2]: 0%
inhibition of binding (AKT3 (human)): 0%
inhibition of binding (CDK7 (human)): 0%
inhibition of binding (CHEK2 (human)): 0%
inhibition of binding (DCLK3 (human)): 51%
inhibition of binding [3]: 0%
inhibition of binding (FER (human)): 0%
inhibition of binding (FGFR3 (human)): 7%
inhibition of binding (FYN (human)): 0%
inhibition of binding (GSK3A (human)): 42%
inhibition of binding (HUNK (human)): 18%
inhibition of binding (KDR (human) [4]): 0%
inhibition of binding (LCK (human)): 0%
inhibition of binding (MAP3K10 (human)): 0%
inhibition of binding (MAP3K12 (human)): 0%
inhibition of binding (MAP3K6 (human)): 0%
inhibition of binding (MAPK12 (human)): 17%
inhibition of binding (MAPK13 (human)): 0%
inhibition of binding (MYLK4 (human)): 0%
inhibition of binding (NEK6 (human)): 0%
inhibition of binding (NTRK3 (human)): 0%
inhibition of binding (OXSR1 (human)): 17%
inhibition of binding (PAK2 (human)): 17%
inhibition of binding (PTK2 (human)): 21%
inhibition of binding (RIOK1 (human)): 11%
inhibition of binding (ROCK1 (human)): 0%
inhibition of binding (RPS6KA1 KD1 (human)): 0%
inhibition of binding (RPS6KA4 KD1 (human)): 4%
inhibition of binding (RPS6KA5 KD2 (human)): 50%
inhibition of binding (SIK2 (human)): 0%
inhibition of binding (STK3 (human)): 0%
inhibition of binding (TEC (human)): 3%
inhibition of binding (ULK1 (human)): 0%
Compound: Nc1cc(C(F)(F)F)c(-c2cc(N3CCOCC3)nc(N3CCOCC3)n2)cn1
